These results are taken from PMC9686977, “Understanding the Role of Self-Assembly and Interaction with Biological Membranes of Short Cationic Lipopeptides in the Effective Design of New Antibiotics” (Antibiotics, 2022).

Converted amounts (≈) assume the structure as drawn. Residues, ends and D or L forms follow the SMILES beside them. *: point of attachment. Palmitoyl = CCCCCCCCCCCCCCCC(=O)*; Myristoyl = CCCCCCCCCCCCCC(=O)*; Lauroyl = CCCCCCCCCCCC(=O)*

Data set [1] deals with Candida albicans ATCC 10231. It is filed as cell-based. Particulars: ATCC 10231, 48 h. The method, then:
(§1) The minimum inhibitory concentration (MIC) was determined according to the procedure recommended by the Clinical Laboratory Standards Institute guidelines. Reference strains of bacteria: Staphylococcus aureus ATCC 25923, Staphylococcus epidermidis ATCC 14990, Escherichia coli ATCC 25922, Pseudomonas aeruginosa ATCC 9027, and fungus Candida albicans ATCC 10231 were obtained from Polish Collection of Microorganisms (PCM, Polish Academy of Sciences, Wroclaw, Poland). […] The plates with the compounds were incubated for 18 h at 37 °C for bacteria and 48 h at 25 °C for fungi. The minimum inhibitory concentration was assumed as the lowest concentration of a lipopeptide at which the observable growth was inhibited.

The subject of data set [2] is Pseudomonas aeruginosa ATCC 9027. The format is cell-based. The settings on record: ATCC 9027, 18 h. The method, then:
as §1

For data set [3], the system named is Staphylococcus aureus ATCC 25923. It is filed as cell-based. The settings on record: ATCC 25923, 18 h. The method, then:
as §1

The subject of data set [4] is Staphylococcus epidermidis ATCC 14990. It is filed as cell-based. Particulars: ATCC 14990, 18 h. Here is the method:
as §1

Data set [5] relates to Escherichia coli ATCC 25922. The format is cell-based. Particulars: ATCC 25922, 18 h. The method, then:
as §1

Data set [6] has as its system human keratinocytes HaCaT. It is filed as cell-based. Particulars: 48 h. Here is the method:
The cytotoxicity of the compounds was evaluated on the basis of a tetrazolium salt reduction test (MTT) performed along the lines of human keratinocytes HaCaT. The keratinocytes were planted in 96-well plates in a medium supplemented with serum. After 24 h, the medium was changed to a serum-free DMEM one containing graded concentrations of peptides. The cells were incubated with peptides for 48 h. Thereafter, MTT was added in order to reach a final concentration of 0.5 mg/mL, and the plates were incubated at 37 °C for 4 h. Then, the MTT reading was analysed using a plate reader. The absorbance at 630 nm (background absorbance) was subtracted from that at 570 nm for each well.

For data set [7] the following is noted: different lipopeptide concentrations.

In the case of `CCCCCCCCCCCCCCCC(=O)N[C@@H](CCCCN)C(=O)NCC(=O)N[C@@H](CCCCN)C(N)=O` [Peptide C16-KGK-NH2] (Palmitoyl-Lys-Gly-Lys-NH2), in data set [1], the “MIC C. albicans” value was determined as 8 mg/L (≈ 14.1 µM). The “MIC P. aeruginosa” value in data set [2] amounted to 64 mg/L (≈ 113 µM). The “MIC S. aureus” value in data set [3] is 16 mg/L (≈ 28.1 µM). For the same compound, the “MIC S. epidermidis” value in data set [4] came out at 4 mg/L (≈ 7.03 µM). The “MIC E. coli” value in data set [5] is 8 mg/L (≈ 14.1 µM). Further, the “IC50 on human keratinocytes (HaCaT)” value in data set [6] worked out at 7.41 ± 3.05 mg/L (≈ 13 µM).

For the compound `CCCCCCCCCCCCCC(=O)N[C@@H](CCCCN)C(=O)N[C@@H](CCCCN)C(=O)N[C@@H](CCCCN)C(=O)N[C@@H](CCCCN)C(N)=O` [Peptide C14-KKKK-NH2] (Myristoyl-KKKK-NH2), the “MIC C. albicans” value in data set [1] stood at 128 mg/L (≈ 173 µM). In addition, the “MIC P. aeruginosa” value in data set [2] was 64 mg/L (≈ 86.5 µM). Besides, the “MIC S. aureus” value in data set [3] is 32 mg/L (≈ 43.2 µM). In data set [4], the “MIC S. epidermidis” value came to 2 mg/L (≈ 2.7 µM). Also, in data set [5], the “MIC E. coli” value was 128 mg/L (≈ 173 µM). The “IC50 on human keratinocytes (HaCaT)” value in data set [6] is 15.63 ± 0.74 mg/L (≈ 21.1 µM).

As for `CCCCCCCCCCCCCCCC(=O)N[C@@H](CCCCN)C(=O)N[C@@H](CCCCN)C(=O)N[C@@H](CCCCN)C(=O)N[C@@H](CCCCN)C(N)=O` [Peptide C16-KKKK-NH2] (Palmitoyl-KKKK-NH2), the “MIC C. albicans” value in data set [1] was 16 mg/L (≈ 20.8 µM). Besides, the “MIC P. aeruginosa” value in data set [2] was found to be 16 mg/L (≈ 20.8 µM). Moreover, the “MIC S. aureus” value in data set [3] amounted to 8 mg/L (≈ 10.4 µM). Also, the “MIC S. epidermidis” value in data set [4] came to 8 mg/L (≈ 10.4 µM). In addition, in data set [5], the “MIC E. coli” value worked out at 16 mg/L (≈ 20.8 µM). Also, the “IC50 on human keratinocytes (HaCaT)” value in data set [6] came to 23.52 ± 1.30 mg/L (≈ 30.6 µM).

With `CCCCCCCCCCCCCCCC(=O)N[C@@H](CCCCN)C(=O)NCCC(=O)N[C@@H](CCCCN)C(N)=O` [Peptide C16-KβAK-NH2], in data set [1], the “MIC C. albicans” value worked out at 4 mg/L (≈ 6.86 µM). For the same compound, in data set [2], the “MIC P. aeruginosa” value amounted to 64 mg/L (≈ 110 µM). Further, in data set [3], the “MIC S. aureus” value stood at 128 mg/L (≈ 220 µM). The “MIC S. epidermidis” value in data set [4] came to 2 mg/L (≈ 3.43 µM). In addition, in data set [5], the “MIC E. coli” value was 64 mg/L (≈ 110 µM). Besides, the “IC50 on human keratinocytes (HaCaT)” value in data set [6] worked out at 25.11 ± 6.17 mg/L (≈ 43.1 µM).

As to `CCCCCCCCCCCCCCCC(=O)N[C@@H](CCCNC(=N)N)C(=O)N[C@@H](CCCNC(=N)N)C(=O)N[C@@H](CCCNC(=N)N)C(=O)N[C@@H](CCCNC(=N)N)C(N)=O` [Peptide C16-RRRR-NH2] (Palmitoyl-RRRR-NH2), in data set [7], the “aggregate size from self-diffusion coefficients (PFG NMR), compared with C16-KKKK-NH2” value is reported as “distinctly larger aggregates”.

In the case of `CCCCCCCCCCCC(=O)N[C@@H](CCCCN)C(=O)N[C@@H](CCCNC(=N)N)C(=O)N[C@@H](CCCCN)C(=O)N[C@@H](CCCCN)C(N)=O` [Peptide C12-KRKK-NH2] (Lauroyl-KRKK-NH2), in data set [1], the “MIC C. albicans” value was 512 mg/L (≈ 692 µM). The “MIC P. aeruginosa” value in data set [2] is 512 mg/L (≈ 692 µM). Moreover, the “MIC S. aureus” value in data set [3] was 64 mg/L (≈ 86.5 µM). In addition, the “MIC S. epidermidis” value in data set [4] is not above 1 mg/L. In addition, the “MIC E. coli” value in data set [5] turned out to be 512 mg/L (≈ 692 µM).

Regarding `CCCCCCCCCCCCCCCCCC(=O)N[C@@H](CCCCN)C(=O)N[C@@H](CCCCN)C(N)=O` [Peptide C18-KK-NH2], the “MIC C. albicans” value in data set [1] came to 4 mg/L (≈ 7.41 µM). Besides, the “MIC P. aeruginosa” value in data set [2] amounted to 64 mg/L (≈ 119 µM). Also, the “MIC S. aureus” value in data set [3] is 64 mg/L (≈ 119 µM). Moreover, in data set [4], the “MIC S. epidermidis” value worked out at 4 mg/L (≈ 7.41 µM). Also, the “MIC E. coli” value in data set [5] amounted to 128 mg/L (≈ 237 µM). Further, in data set [6], the “IC50 on human keratinocytes (HaCaT)” value was 0.69 ± 0.001 mg/L (≈ 1.28 µM).

Take `CCCCCCCCCCCCCC(=O)N[C@@H](CCCCN)C(=O)N[C@@H](CCCNC(=N)N)C(=O)N[C@@H](CCCCN)C(=O)N[C@@H](CCCCN)C(N)=O` [Peptide C14-KRKK-NH2] (Myristoyl-KRKK-NH2): in data set [1], the “MIC C. albicans” value is 128 mg/L (≈ 167 µM). In data set [2], the “MIC P. aeruginosa” value amounted to 64 mg/L (≈ 83.3 µM). Moreover, the “MIC S. aureus” value in data set [3] came to 16 mg/L (≈ 20.8 µM). For the same compound, the “MIC S. epidermidis” value in data set [4] was not above 1 mg/L. Also, the “MIC E. coli” value in data set [5] came to 64 mg/L (≈ 83.3 µM). Moreover, the “IC50 on human keratinocytes (HaCaT)” value in data set [6] turned out to be 20.38 ± 4.12 mg/L (≈ 26.5 µM).

As for `CCCCCCCCCCCCCCCC(=O)N[C@@H](CCCCN)C(=O)N[C@@H](CCCCN)C(N)=O` [Peptide C16-KK-NH2], the “MIC C. albicans” value in data set [1] came to 4 mg/L (≈ 7.82 µM). Further, the “MIC P. aeruginosa” value in data set [2] is 128 mg/L (≈ 250 µM). In addition, the “MIC S. aureus” value in data set [3] amounted to 8 mg/L (≈ 15.6 µM). Further, the “MIC S. epidermidis” value in data set [4] worked out at 4 mg/L (≈ 7.82 µM). Also, in data set [5], the “MIC E. coli” value was found to be 8 mg/L (≈ 15.6 µM). For the same compound, in data set [6], the “IC50 on human keratinocytes (HaCaT)” value was found to be 2.5 ± 0.8 mg/L (≈ 4.88 µM).

Regarding `CCCCCCCCCCCCCC(=O)N[C@@H](CCCCN)C(=O)N[C@@H](CCCCN)C(=O)N[C@@H](CCCCN)C(=O)N[C@@H](CCCNC(=N)N)C(N)=O` [Peptide C14-KKKR-NH2] (Myristoyl-KKKR-NH2), the “MIC C. albicans” value in data set [1] came to 128 mg/L (≈ 167 µM). The “MIC P. aeruginosa” value in data set [2] was found to be 128 mg/L (≈ 167 µM). For the same compound, the “MIC S. aureus” value in data set [3] is 32 mg/L (≈ 41.7 µM). Also, the “MIC S. epidermidis” value in data set [4] is not above 1 mg/L. Further, the “MIC E. coli” value in data set [5] amounted to 128 mg/L (≈ 167 µM). Moreover, the “IC50 on human keratinocytes (HaCaT)” value in data set [6] is 32.5 ± 10.0 mg/L (≈ 42.3 µM).

In the case of `CCCCCCCCCCCC(=O)N[C@@H](CCCCN)C(=O)N[C@@H](CCCCN)C(=O)N[C@@H](CCCCN)C(=O)N[C@@H](CCCCN)C(N)=O` [Peptide C12-KKKK-NH2] (Lauroyl-KKKK-NH2), the “MIC C. albicans” value in data set [1] was more than 512 mg/L. In data set [2], the “MIC P. aeruginosa” value amounted to 256 mg/L (≈ 360 µM). For the same compound, the “MIC S. aureus” value in data set [3] was determined as 64 mg/L (≈ 89.9 µM). Also, in data set [4], the “MIC S. epidermidis” value turned out to be 16 mg/L (≈ 22.5 µM). Besides, the “MIC E. coli” value in data set [5] worked out at 512 mg/L (≈ 719 µM).
